Consider one compound from article PMC8020795 (Proceedings of the National Academy of Sciences of the …, 2021).

“Also recorded” adds a separate entry of the source.

The series concerns human liver cytochrome P450 isozymes (CYP 1A2, 2C9, 2C19, 2D6, 2E1, 3A4). The settings on record: 100 μM; 1A2, 2C9, 2C19, 2D6, 2E1, and 3A4 isozymes. An excerpt: The effects of BPRCX807 on the activity of six specific human liver cytochrome P450 isozymes (CYP 1A2, 2C9, 2C19, 2D6, 2E1, 3A4) expressed in baculovirus-infected insect cell supersomes were studied. The reactions used to measure the activity of these enzymes

Regarding `Cc1cc(NC2CCN(C(=O)CCNCC(=O)O)CC2)nc(NCc2nc(CCCNCCCNC3CCCCC3)co2)n1` [BPRCX807], the CYP450 inhibition result is “no inhibitory effects; also recorded: No inhibition”.
